Series [1] concerns the target T1, 5-lipoxygenase (5-LO) (Homo sapiens, UniProt P09917).
T1 construct: Leukotriene B4 (LTB4) production in human whole blood; from tissue; host or cells: human whole blood (healthy donors, heparinized)
T1 sequence (P09917 1-674): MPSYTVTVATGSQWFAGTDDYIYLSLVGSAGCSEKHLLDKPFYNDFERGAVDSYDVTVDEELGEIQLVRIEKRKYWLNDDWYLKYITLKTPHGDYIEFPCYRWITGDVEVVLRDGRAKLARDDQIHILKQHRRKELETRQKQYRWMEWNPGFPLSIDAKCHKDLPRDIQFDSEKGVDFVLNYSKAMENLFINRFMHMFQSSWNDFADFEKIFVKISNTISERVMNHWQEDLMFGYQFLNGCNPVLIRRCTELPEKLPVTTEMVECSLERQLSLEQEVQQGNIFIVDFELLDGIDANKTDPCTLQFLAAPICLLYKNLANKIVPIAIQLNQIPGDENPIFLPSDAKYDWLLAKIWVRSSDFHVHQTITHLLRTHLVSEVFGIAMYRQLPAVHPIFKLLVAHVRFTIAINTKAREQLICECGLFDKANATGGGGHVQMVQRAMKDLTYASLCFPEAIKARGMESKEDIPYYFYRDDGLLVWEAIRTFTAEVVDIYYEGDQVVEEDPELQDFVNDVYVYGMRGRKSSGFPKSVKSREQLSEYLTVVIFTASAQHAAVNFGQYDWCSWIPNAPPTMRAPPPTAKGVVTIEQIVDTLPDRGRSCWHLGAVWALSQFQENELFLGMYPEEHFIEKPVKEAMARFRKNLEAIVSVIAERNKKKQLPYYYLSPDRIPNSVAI
As to the kind of experiment: 5-Lipoxygenase activity: calcium ionophore-induced LTB4 production in human whole blood. Conditions: A-23187 20 μg/ml, LTB4 by ELISA, mean IC50. The class given is cell-based. As for the experimental part:
Assay for 5-Lipoxygenase activity
The 5-lipoxygenase (5-LO) activity of the compounds were determined by the calcium ionophore-induced Leukotriene B4 (LTB4) production in human whole blood. Venous blood was collected from healthy human donors using heparin as an anti-coagulant. Human blood samples (0.2 ml of a 1:4 dilution in RPMI 1640 medium) were incubated in 96-well culture plates for 15 minutes at 37° C. with test compounds dissolved in ethanol (EtOH; final concentration <1%), or vehicle. Typically 7 concentrations of test compounds were examined in duplicate. A-23187 [Sigma] was added to the blood to a final concentration of 20 μg/ml, and the mixtures were incubated for 10 minutes at 37° C. The reaction was stopped by placing the samples on ice. The samples were then centrifuged at 800×g at 4° C. for 10 minutes to pellet the cells, and the supernatants were recovered for quantitation of LTB4 by ELISA (Cayman Chemical Co.; sensitivity 3 pg/ml). IC50's were estimated from a four parameter logistic model with two parameters fixed, the minimum (0% inhibition) and maximum (100% inhibition). The IC50 value is the concentration that produces 50% inhibition between the fixed values of the minimum and maximum. Data is reported as the mean IC50 for each compound.
A general note: ELISA stands for enzyme-linked immunosorbent assay.

Series [2] addresses T2, COX-2 (UniProt P35354).
T2 sequence (P35354 1-604): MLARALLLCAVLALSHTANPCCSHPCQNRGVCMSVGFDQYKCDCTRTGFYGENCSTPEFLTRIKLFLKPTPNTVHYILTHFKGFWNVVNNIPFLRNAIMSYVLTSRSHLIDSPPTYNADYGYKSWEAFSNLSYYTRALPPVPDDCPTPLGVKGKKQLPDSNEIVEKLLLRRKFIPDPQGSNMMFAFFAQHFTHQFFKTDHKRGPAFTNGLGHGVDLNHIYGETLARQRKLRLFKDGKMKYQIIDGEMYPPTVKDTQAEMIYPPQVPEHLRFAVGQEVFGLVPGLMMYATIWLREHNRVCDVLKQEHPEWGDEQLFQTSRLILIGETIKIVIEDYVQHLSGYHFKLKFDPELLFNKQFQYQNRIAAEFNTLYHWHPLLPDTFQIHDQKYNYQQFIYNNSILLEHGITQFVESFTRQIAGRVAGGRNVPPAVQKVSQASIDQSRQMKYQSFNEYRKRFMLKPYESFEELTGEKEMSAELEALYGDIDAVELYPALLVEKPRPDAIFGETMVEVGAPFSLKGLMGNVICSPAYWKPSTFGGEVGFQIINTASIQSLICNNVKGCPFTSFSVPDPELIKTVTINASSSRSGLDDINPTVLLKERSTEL
Briefly: COX-2 activity in vitro (PGE2 ELISA, recombinant enzyme). Conditions: recombinant COX-2, arachidonic acid 10 μM. In kind it is biochemical, human or murine. The procedure:
Evaluation of COX-1 and COX-2 activity in vitro
The COX-2 inhibition activity of the compounds of this invention illustrated in the Examples was determined by the following methods. a. Preparation of recombinant COX baculoviruses
(§1) Recombinant COX-1 and COX-2 were prepared as described by Gierse et al, [J. Biochem., 305, 479-84 (1995)]. A 2.0 kb fragment containing the coding region of either human or murine COX-1 or human or murine COX-2 was cloned into a BamH1 site of the baculovirus tra nsfer vector pVL1393 (Invitrogen) to generate the baculovirus transfer vectors for COX-1 and coX-2 in a manner similar to the method of D. R. O'Reilly et al (Baculovirus Expression Vectors: A Laboratory Manual (1992)). Recombinant baculoviruses were isolated by transfecting 4 μg of baculovirus transfer vector DNA into SF9 insect cells (2×10^8) along with 200 ng of linearized baculovirus plasmid DNA by the calcium phosphate method. See M. D. Summers and G. E. Smith, A Manual of Methods for Baculovirus Vectors and Insect Cell Culture Procedures, Texas Agric. Exp. Station Bull. 1555 (1987). Recombinant viruses were purified by three rounds of plaque purification and high titer (10^7-10^8 pfu/ml) stocks of virus were prepared. For large scale production, SF9 insect cells were infected in 10 liter fermentors (0.5×10^6/ml) with the recombinant baculovirus stock such that the multiplicity of infection was 0.1. After 72 hours the cells were centrifuged and the cell pellet homogenized in Tris/Sucrose (50 mM: 25%, pH 8.0) containing 1% 3-[(3-cholamidopropyl)dimethylammonio]-1-propanesulfonate (CHAPS). The homogenate was centrifuged at 10,000×G for 30 minutes, and the resultant supernatant was stored at −80° C. before being assayed for COX activity. […]
(§2) b. Assay for COX-1 and COX-2 activitv
COX activity was assayed as PGE2 formed/μg protein/time using an ELISA to detect the prostaglandin released. […] The PGE2 formed was measured by standard ELISA technology (Cayman Chemical).

The target of series [3] is COX-1 (UniProt P23219). As to the kind of experiment: COX-1 activity in vitro (PGE2 ELISA, recombinant enzyme). The class given is biochemical, human or murine. Conditions: recombinant COX-1, arachidonic acid 10 μM. As for the experimental part:
Evaluation of COX-1 and COX-2 activity in vitro a. Preparation of recombinant COX baculoviruses
as §1, §2
COX activity was assayed as PGE2 formed/μg protein/time using an ELISA to detect the prostaglandin released. CHAPS-solubilized insect cell membranes containing the appropriate COX enzyme were incubated in a potassium phosphate buffer (50 mM, pH 8.0) containing epinephrine, phenol, and heme with the addition of arachidonic acid (10 μM). […] The PGE2 formed was measured by standard ELISA technology (Cayman Chemical).

The subject of series [4] is carrageenan foot edema. As to the kind of experiment: Rat carrageenan foot pad edema test. In kind it is in vivo. As to conditions: male Sprague-Dawley rats, oral, 3 h after carrageenan. The procedure: Rat Carrageenan Foot Pad Edema Test
The carrageenan foot edema test was performed with materials, reagents and procedures essentially as described by Winter, et al., (Proc. Soc. Exp. Biol. Med., 111, 544 (1962)). Male Sprague-Dawley rats were selected in each group so that the average body weight was as close as possible. Rats were fasted with free access to water for over sixteen hours prior to the test. The rats were dosed orally (1 mL) with compounds suspended in vehicle containing 0.5% methylcellulose and 0.025% surfactant, or with vehicle alone. One hour later a subplantar injection of 0.1 mL of 1% solution of carrageenan/sterile 0.9% saline was administered and the volume of the injected foot was measured with a displacement plethysmometer connected to a pressure transducer with a digital indicator. Three hours after the injection of the carrageenan, the volume of the foot was again measured. The average foot swelling in a group of drug-treated animals was compared with that of a group of placebo-treated animals and the percentage inhibition of edema was determined (Otterness and Bliven, Laboratory Models for Testing NSAIDs, in Non-steroidal Anti-Inflammatory Drugs, (J. Lombardino, ed. 1985)).
In general terms: In the carrageenan paw model, swelling and tenderness develop within hours.

The results in this text go back to patent publication US20020028945A1, “Heterocyclo substituted hydroxamic acid derivatives as cyclooxygenase-2 and 5-lipoxygenase inhibitors” (priority 1996, published 2002).

The structures appear in SMILES notation. A value given as a limit tells only on which side of the number the result lay.

A word on the IC50: it is the midpoint of a concentration-inhibition curve. What is called melting point is the temperature of the solid-liquid transition.

`NC(=O)N(O)Cc1cc(-c2ccc(Cl)cc2)n(-c2ccc(S(N)(=O)=O)cc2)n1` [Example 1, N′-[[1-[4-(Aminosulfonyl)phenyl]-5-(4-chlorophenyl)-1H-pyrazol-3-yl]methyl]-N′-hydroxyurea]: the half-maximal inhibitory concentration (IC50) was 12.3 µM in series [1], 6.6 µM in series [2] and 53.5 µM in series [3].

In the case of `CN(O)C(=O)CCc1nc(-c2ccc(F)cc2)c(-c2ccc(S(C)(=O)=O)cc2)o1` [Example 2, 4-(4-Fluorophenyl)-N-hydroxy-N-methyl-5-[(4-methylsulfonyl)phenyl]-2-oxazolepropanamide], the IC50 in series [1] was 0.05 µM; in series [2], 5.1 µM; in series [3] it was more than 100 µM. The “RAT PAW EDEMA % Inhibition @ 10 mg/kg body weight” value in series [4] turned out to be 2%.

On to `CN(O)C(=O)Cc1cc(-c2ccc(Cl)cc2)n(-c2ccc(S(N)(=O)=O)cc2)n1` [Example 3, [1-[4-(Aminosulfonyl)phenyl]-5-(4-chlorophenyl)-1H-pyrazol-3-yl]-N-hydroxy-N-methyl-ethanamide], for which the melting point is 110 to 135 °C (dec.).

The molecule `NS(=O)(=O)c1ccc(-c2nc(CCCC(=O)NO)oc2-c2ccc(Cl)c(Cl)c2)cc1` [Example 4, 4-[(4-Aminosulfonyl)phenyl]-5-(3,4-dichlorophenyl)-N-hydroxy-2-oxazole-butanamide] gave a melting point of 165 to 169.7 °C. Also, the IC50 in series [2] is 0.3 µM. In addition, the half-inhibitory concentration (IC50) in series [3] came to 12.5 µM.
